We go through 20 compounds from patent publication US7279494B2, “Antimicrobial [3.1.0] bicyclohexylphenyl-oxazolidinone derivatives and analogues” (Pfizer Inc., priority 2003, dated 2007).

≈ marks a conversion by molar mass, not a printed value. Bounds are passed on as bounds.

What all share (assay type): cell-based
One assay deals with S. aureus UC9213. Kind of assay: MIC by standard agar dilution, S. aureus UC9213. The note with it: incubated overnight at 35° C.; for S. aureus UC9213 MIC: Mueller Hinton agar; for MIC: Staphylococcus aureus, UC9213, Mueller Hinton agar. An excerpt: (§1) The in vitro activity of compounds of the subject invention may be assessed by standard testing procedures such as the determination of minimum inhibitory concentration (MIC) by agar dilution as described in “Approved Standard. Methods for Dilution Antimicrobial Susceptibility Tests for Bacteria that Grow Aerobically,” 3rd ed., published 1993 by the National Committee for Clinical Laboratory standards, Villanova, Pa., USA.
(§2) The in vitro MICs of test compounds may be determined by a standard agar dilution method. A stock drug solution of each analog is prepared in a preferred solvent, usually DMSO:H2O (1:3). Serial 2-fold dilutions of each sample are made using 1.0 mL aliquots of sterile distilled water. To each 1.0 mL aliquot of drug is added 9 mL of molten Mueller Hinton agar medium. The drug-supplemented agar is mixed, poured into 15×100 mm petri dishes, and allowed to solidify and dry prior to inoculation.
(§3) Vials of each of the test organisms are maintained frozen in the vapor phase of a liquid nitrogen freezer. Test cultures are grown overnight at 35° C. on the medium appropriate for the organism. Colonies are harvested with a sterile swab, and cell suspensions are prepared in Trypticase Soy broth (TSB) to equal the turbidity of a 0.5 McFarland standard. A 1:20 dilution of each suspension is made in TSB. The plates containing the drug supplemented agar are inoculated with a 0.001 mL drop of the cell suspension using a Steers replicator, yielding approximately 10^4 to 10^5 cells per spot. The plates are incubated overnight at 35° C.
(§4) Following incubation the Minimum Inhibitory Concentration (MIC μg/mL), the lowest concentration of drug that inhibits visible growth of the organism, is read and recorded.
On the technique in general: In agar dilution the substance is mixed into plates at graded concentrations.

Another assay relates to S. pneumoniae UC9912. Kind of assay: MIC by standard agar dilution, S. pneumoniae UC9912. The note with it: incubated overnight at 35° C.; for S. pneumoniae UC9912 MIC: Mueller Hinton agar; for MIC: Streptococcus pneumoniae, UC9912, Mueller Hinton agar.
Source text: as §1, §2, §3, §4

The next assay has as its system H. influenzae 30063. Kind of assay: MIC by standard agar dilution, H. influenzae 30063. The settings on record: Mueller Hinton agar, incubated overnight at 35° C.; for H. influenzae 30063 MIC: agar dilution; for MIC: Haemophilus influenzae, 30063, agar dilution, read-out: H. influenzae 30063 MIC.
Source text: as §1, §2, §3, §4

As for `CC(=O)NC[C@H]1CN(c2cc(F)c([C@H]3[C@@H]4C[S+]([O-])C[C@@H]43)c(F)c2)C(=O)O1` (stereo partly drawn) [Example 12, N-[((5S)-3-{3,5-difluoro-4-[exo-(1R,5S)-3-oxido-3-thiabicyclo[3.1.0]hex-6-yl]phenyl}-2-oxo-1,3-oxazolidin-5-yl)methyl]acetamide], in the assay with S. aureus UC9213, the “S. aureus UC9213 MIC” value was determined as 1 µg/mL. In addition, in the assay on S. pneumoniae UC9912, the “S. pneumoniae UC9912 MIC” value was found to be 0.5 µg/mL. The “H. influenzae 30063 MIC” value with H. influenzae 30063 worked out at 4 µg/mL.
As for `CCC(=O)NC[C@H]1CN(c2ccc([C@H]3[C@@H]4CN(C(=O)CO)C[C@@H]43)c(F)c2)C(=O)O1` [Example 26, N-[((5S)-3-{3-fluoro-4-[exo-(1R,5S)-3-glycoloyl-3-azabicyclo[3.1.0]hex-6-yl]phenyl}-2-oxo-1,3-oxazolidin-5-yl)methyl]propanamide], the MIC in the assay on S. aureus UC9213 was 1 µg/mL (≈ 2.47 µM); against S. pneumoniae UC9912, 0.5 µg/mL (≈ 1.23 µM); in the assay on H. influenzae 30063 it was 4 µg/mL (≈ 9.87 µM).
In the same order, the values of `CCC(=O)NC[C@H]1CN(c2ccc([C@H]3[C@@H]4CNC[C@@H]43)c(F)c2)C(=O)O1` [Example 21, N-[((5S)-3-{4-[exo-(1R,5S)-3-azabicyclo[3.1.0]hex-6-yl]-3-fluorophenyl}-2-oxo-1,3-oxazolidin-5-yl)methyl]proyanamide] are 4 µg/mL (≈ 11.5 µM), 1 µg/mL (≈ 2.88 µM) and 8 µg/mL (≈ 23 µM).
Consider `CN/C(=N\C#N)N1C[C@@H]2[C@H](C1)[C@H]2c1ccc(N2C[C@H](CNC(C)=O)OC2=O)cc1F` [Example 73, exo-(1R,5S)-N′-cyano-6-(4-{(5S)-5-[(acetylamino)methyl]-2-oxo-1,3-oxazolidin-3-yl}-2-fluorophenyl)-N-methyl-3-azabicyclo[3.1.0]hexane-3-carboximidamide], for which the MIC in the assay on S. aureus UC9213 stood at 2 µg/mL (≈ 4.83 µM); against S. pneumoniae UC9912, 1 µg/mL (≈ 2.41 µM); in the assay with H. influenzae 30063, 4 µg/mL (≈ 9.65 µM).
In the same order, the values of `CCC(=O)NC[C@H]1CN(c2ccc([C@H]3[C@@H]4CN(C(N)=O)C[C@@H]43)c(F)c2)C(=O)O1` [Example 23, exo-(1R,5S)-6-(4-{(5S)-5-[(propanoylamino)methyl]-2-oxo-1,3-oxazolidin-3-yl}-2-fluorophenyl)-3-azabicyclo[3.1.0]hexane-3-carboxamide] are 1 µg/mL (≈ 2.56 µM), 0.25 µg/mL (≈ 0.64 µM) and 4 µg/mL (≈ 10.2 µM).
“N-[((5S)-3-{3-fluoro-4-[exo-(1R,5S)-3-(1-methyl-1H-tetrazol-5-yl)-3-azabicyclo[3.1.0]hex-6-yl]phenyl}-2-oxo-1,3-oxazolidin-5-yl)methyl]acetamide [Example 45]”: in the assay on S. aureus UC9213, the “S. aureus UC9213 MIC” value is 4 µg/mL. Also, the “S. pneumoniae UC9912 MIC” value in the assay on S. pneumoniae UC9912 was determined as 4 µg/mL. For the same compound, in the assay on H. influenzae 30063, the “H. influenzae 30063 MIC” value stood at 16 µg/mL.
Regarding `CC(=O)NC[C@H]1CN(c2ccc([C@H]3[C@@H]4CN(C(=O)[C@H](C)O)C[C@@H]43)c(F)c2)C(=O)O1` [Example 29, N-[((5S)-3-{3-fluoro-4-[exo-(1R, 5S)-3-(2-(S)-hydroxypropanoyl)-3-azabicyclo[3.1.0]hex-6-yl]phenyl}-2-oxo-1,3-oxazolidin-5-yl)methyl]acetamide], the MIC against S. aureus UC9213 turned out to be 4 µg/mL (≈ 9.87 µM); with S. pneumoniae UC9912, 2 µg/mL (≈ 4.93 µM); with H. influenzae 30063, 16 µg/mL (≈ 39.5 µM).
Regarding `O=C(NC[C@H]1CN(c2cc(F)c([C@H]3[C@@H]4C[S+]([O-])C[C@@H]43)c(F)c2)C(=O)O1)C1CC1` (stereo partly drawn) [Example 61, N-[((5S)-3-{3,5-difluoro-4-[exo-(1R,5S)-3-oxido-3-thiabicyclo[3.1.0]hex-6-yl]phenyl}-2-oxo-1,3-oxazolidin-5-yl)methyl]cyclopropanecarboxamide], the figures for the MIC against S. aureus UC9213, in the assay on S. pneumoniae UC9912 and in the assay on H. influenzae 30063 were 2 µg/mL (≈ 4.87 µM), 1 µg/mL (≈ 2.44 µM) and 8 µg/mL (≈ 19.5 µM), respectively.
Take `N#CCC(=O)NC[C@H]1CN(c2ccc([C@H]3[C@@H]4CS(=O)(=O)C[C@@H]43)c(F)c2)C(=O)O1` [Example 69, 2-cyano-N-[((5S)-3-{3-fluoro-4-[exo-(1R,5S)-3,3-dioxido-3-thiabicyclo[3.1.0]hex-6-yl]phenyl}-2-oxo-1,3-oxazolidin-5-yl)methyl]acetamide]: the results for the MIC against S. aureus UC9213, against S. pneumoniae UC9912 and in the assay on H. influenzae 30063 were 4 µg/mL (≈ 9.82 µM), 4 µg/mL (≈ 9.82 µM) and 8 µg/mL (≈ 19.6 µM), respectively.
For `CC(=O)NC[C@H]1CN(c2ccc(N3CCOCC3)c(F)c2)C(=O)O1` [linezolid, reference compound], the MIC in the assay with S. aureus UC9213 turned out to be 4 µg/mL (≈ 11.9 µM); with S. pneumoniae UC9912, 1 µg/mL (≈ 2.96 µM); in the assay with H. influenzae 30063 it was 16 µg/mL (≈ 47.4 µM).
For `CC(=O)NC[C@H]1CN(c2ccc([C@H]3[C@@H]4CN(C(=O)c5c[nH]cn5)C[C@@H]43)c(F)c2)C(=O)O1` [Example 39, N-[((5S)-3-{3-fluoro-4-[exo-(1R,5S)-3-(1H-imidazole-4-carbonyl)-3-azabicyclo[3.1.0]hex-6-yl]phenyl}-2-oxo-1,3-oxazolidin-5-yl)methyl]acetamide] the same measures were 0.5 µg/mL (≈ 1.17 µM), 1 µg/mL (≈ 2.34 µM) and 4 µg/mL (≈ 9.36 µM).
In the same order, the values of `NC(=O)N1C[C@@H]2[C@H](C1)[C@H]2c1ccc(N2C[C@H](CNC(=S)C(F)F)OC2=O)cc1F` [Example 11, exo-(1R,5S)-6-[4-((5S)-5-{[(2,2-difluoroethanethioyl)amino]methyl}-2-oxo-1,3-oxazolidin-3-yl)-2-fluorophenyl]-3-azabicyclo[3.1.0]hexane-3-carboxamide] are 0.5 µg/mL (≈ 1.17 µM), 0.25 µg/mL (≈ 0.584 µM) and 2 µg/mL (≈ 4.67 µM).
For the compound `CCC(=O)NC[C@H]1CN(c2ccc([C@H]3[C@@H]4C[S+]([O-])C[C@@H]43)c(F)c2)C(=O)O1` (stereo partly drawn) [Example 50, N-[((5S)-3-{3-fluoro-4-[exo-(1R,5S)-3-oxido-3-thiabicyclo[3.1.0]hex-6-yl]phenyl}-2-oxo-1,3-oxazolidin-5-yl)methyl]proyanamide], the MIC was 2 µg/mL (≈ 5.26 µM) with S. aureus UC9213, 1 µg/mL (≈ 2.63 µM) in the assay on S. pneumoniae UC9912 and 4 µg/mL (≈ 10.5 µM) with H. influenzae 30063.
Consider `N#CCC(=O)NC[C@H]1CN(c2cc(F)c([C@H]3[C@@H]4CS(=O)(=O)C[C@@H]43)c(F)c2)C(=O)O1` [Example 71, 2-cyano-N-[((5S)-3-{3,5-difluoro-4-[exo-(1R,5S)-3,3-dioxide-3-thiabicyclo[3.1.0]hex-6-yl]phenyl}-2-oxo-1,3-oxazolidin-5-yl)methyl]acetamide], for which the MIC turned out to be 4 µg/mL (≈ 9.4 µM) in the assay on S. aureus UC9213, 2 µg/mL (≈ 4.7 µM) with S. pneumoniae UC9912 and 4 µg/mL (≈ 9.4 µM) in the assay on H. influenzae 30063.
Turning to `CC(=O)NC[C@H]1CN(c2ccc([C@H]3[C@@H]4CN(C(=O)CN)C[C@@H]43)c(F)c2)C(=O)O1` [Example 35, N-[((5S)-3-{3-fluoro-4-[exo-(1R,5S)-3-aminoacetyl-3-azabicyclo[3.1.0]hex-6-yl]phenyl}-2-oxo-1,3-oxazolidin-5-yl)methyl]acetamide], the MIC against S. aureus UC9213 came to 8 µg/mL (≈ 20.5 µM); in the assay with S. pneumoniae UC9912 it was 2 µg/mL (≈ 5.12 µM); with H. influenzae 30063, 16 µg/mL (≈ 41 µM).
In the same order, the values of `CCC(=O)NC[C@H]1CN(c2ccc([C@H]3[C@@H]4CN(C(=O)COC)C[C@@H]43)c(F)c2)C(=O)O1` [Example 27, N-[((5S)-3-{3-fluoro-4-[exo-(1R,5S)-3-methoxyacetyl-3-azabicyclo[3.1.0]hex-6-yl]phenayl}-2-oxo-1,3-oxazolidin-5-yl)methyl]propanamide] are 2 µg/mL (≈ 4.77 µM), 0.5 µg/mL (≈ 1.19 µM) and 8 µg/mL (≈ 19.1 µM).
For the compound `CCC(=O)NC[C@H]1CN(c2ccc([C@H]3[C@@H]4CN(C=O)C[C@@H]43)c(F)c2)C(=O)O1` [Example 22, N-[((5S)-3-{3-fluoro-4-[exo-(1R,5S)-3-formyl-3-azabicyclo[3.1.0]hex-6-yl]phenyl}-2-oxo-1,3-oxazolidin-5-yl)methyl]propanamide], the MIC in the assay on S. aureus UC9213 was 1 µg/mL (≈ 2.66 µM); in the assay with S. pneumoniae UC9912, 0.5 µg/mL (≈ 1.33 µM); in the assay with H. influenzae 30063 it was 8 µg/mL (≈ 21.3 µM).
`NC(=O)[C@H]1CN(c2ccc([C@H]3[C@@H]4CS(=O)(=O)C[C@@H]43)c(F)c2)C(=O)O1` [Example 20, (5R)-3-{4-[exo-(1R,5S)-3,3-dioxido-3-thiabicyclo[3.1.0]hex-6-yl]-3-fluorophenyl}-2-oxo-1,3-oxazolidine-5-carboxamide]: the MIC in the assay on S. aureus UC9213 is 2 µg/mL (≈ 5.64 µM); with S. pneumoniae UC9912, 2 µg/mL (≈ 5.64 µM); in the assay with H. influenzae 30063, more than 64 µg/mL. For the same compound, the “H. influenzae 30063 MIC” value with H. influenzae 30063 was more than 64 µg/mL.
Take `CCC(=O)NC[C@H]1CN(c2cc(F)c([C@H]3[C@@H]4C[S+]([O-])C[C@@H]43)c(F)c2)C(=O)O1` (stereo partly drawn) [Example 58, N-[((5S)-3-{3,5-difluoro-4-[exo-(1R,5S)-3-oxido-3-thiabicyclo[3.1.0]hex-6-yl]phenyl}-2-oxo-1,3-oxazolidin-5-yl)methyl]propanamide]: the figures for the MIC with S. aureus UC9213, in the assay with S. pneumoniae UC9912 and in the assay with H. influenzae 30063 were 1 µg/mL (≈ 2.51 µM), 1 µg/mL (≈ 2.51 µM) and 2 µg/mL (≈ 5.02 µM), respectively.
As to `CCC(=O)NC[C@H]1CN(c2ccc([C@H]3[C@@H]4CN(C(=O)NC)C[C@@H]43)c(F)c2)C(=O)O1` [Example 24, exo-(1R,5S)-6-(4-{(5S)-5-[(propanoylamino)methyl]-2-oxo-1,3-oxazolidin-3-yl]-2-fluorophenyl)-3-azabicyclo[3.1.0]hexane-3-methylcarboxamide], the results for the MIC in the assay with S. aureus UC9213, in the assay with S. pneumoniae UC9912 and in the assay with H. influenzae 30063 were 4 µg/mL (≈ 9.89 µM), 2 µg/mL (≈ 4.95 µM) and 16 µg/mL (≈ 39.6 µM), respectively.
